Starred links: 1 amine or outer side, 2 acyl side, 3 side chain; linkers in the order of their positions; H or OH if unused. Positions of bridges follow the written chain, without caps; N, C: chain ends. Non-standard residues stand in square brackets, D forms with d. Residues, ends and D or L forms follow the SMILES beside them. Groups on a side chain read outwards from the residue. *: point of attachment. Trp(1-CH2COOH) = N[C@@H](Cc1cn(CC(=O)O)c2ccccc12)C(=O)O; X38 = N#Cc1c[nH]c2c(NC(=S)*)cccc12; X68 = CC1(C)CCC(C)(C)c2cc(N*)ccc21; X75 = S=C(Nc1ccc(C2CC2)c2ccccc12)*; Hyp = O=C(O)[C@@H]1C[C@@H](O)CN1; X33 = Cc1cc2ccc(NC(=S)*)cc2[nH]1; X35 = Cc1n[nH]c2c(NC(=S)*)cccc12; X91 = Cc1cc(NC(=S)*)c2ccccc2n1; X42 = S=C(Nc1ccc2nccnc2c1Br)*; NMeNle = CCCC[C@H](NC)C(=O)O; X16 = S=C(Nc1ccc2c(c1)OCO2)*; X7 = S=C(Nc1ccc2cc[nH]c2c1)*; X20 = O=C(Oc1ccc2ccccc2c1)*; X52 = c1ccc2c(N*)c[nH]c2c1; NMeA = CN[C@@H](C)C(=O)O; X71 = c1cc2c(cc1N*)OCCO2; βNA = c1ccc2cc(N*)ccc2c1; Dab = NCC[C@H](N)C(=O)O; Dap = NC[C@H](N)C(=O)O; CO = O=C([*:1])[*:2]

Consider 13 compounds from patent US20220389061A1, “IMMUNOMODULATORS” (priority 2019, published 2022).

T1 sequence (Q9NZQ7 18-239): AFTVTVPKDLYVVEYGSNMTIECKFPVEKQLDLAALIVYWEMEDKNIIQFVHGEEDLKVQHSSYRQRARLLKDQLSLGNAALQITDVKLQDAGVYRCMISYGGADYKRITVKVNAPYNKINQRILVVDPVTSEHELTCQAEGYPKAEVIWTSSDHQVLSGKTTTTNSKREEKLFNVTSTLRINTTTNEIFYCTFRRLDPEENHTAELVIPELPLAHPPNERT

The first assay addresses T1, PD-1/PD-L1 (Homo sapiens, UniProt Q9NZQ7).
T1 construct: TVMV protease site linker (C); made in house; host or cells: HEK293T cells
The assay is described as follows: PD-1/PD-L1 Homogenous Time-Resolved Fluorescence (HTRF) binding assay.
Conditions: not given
Summed up: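 Compounds preincubated 15 min with PD-L1-His (10 nM final), then PD-1-Ig (20 nM final) added for 15 min in dPBS with 0.1% BSA, 0.05% Tween-20. Detection by Eu-cryptate anti-Ig (1 nM) and APC anti-His (20 nM) HTRF.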
In the case of `CCCC[C@H]1C(=O)N(C)[C@@H](CCCC)C(=O)N[C@@H](CC(C)C)C(=O)N[C@H](C(=O)NCC(N)=O)CSCC(=O)N[C@@H](Cc2ccc(O)cc2)C(=O)N(C)[C@@H](C)C(=O)N[C@@H](CC(N)=O)C(=O)N2CCC[C@H]2C(=O)N[C@@H](CNC(=O)Nc2ccc3ccccc3c2)C(=O)N[C@@H](CC(C)C)C(=O)N2C[C@H](O)C[C@H]2C(=O)N[C@@H](Cc2c[nH]c3ccccc23)C(=O)N[C@@H](CCN)C(=O)N[C@@H](Cc2cn(CC(=O)O)c3ccccc23)C(=O)N1C` [Example 3043] ({CH2CO}-Y[NMeA]NP[Dap]([CO-βNA])L[Hyp]W[Dab][Trp(1-CH2COOH)][NMeNle][NMeNle]LCG-NH2; thioether N-14), the IC50 turned out to be 3.2 nM.

`CCCC[C@H]1C(=O)N(C)[C@@H](CCCC)C(=O)N[C@@H](CC(C)C)C(=O)N[C@H](C(=O)NCC(N)=O)CSCC(=O)N[C@@H](Cc2ccc(O)cc2)C(=O)N(C)[C@@H](C)C(=O)N[C@@H](CC(N)=O)C(=O)N2CCC[C@H]2C(=O)N[C@@H](CNC(=O)Oc2ccc3ccccc3c2)C(=O)N[C@@H](CC(C)C)C(=O)N2C[C@H](O)C[C@H]2C(=O)N[C@@H](Cc2c[nH]c3ccccc23)C(=O)N[C@@H](CCN)C(=O)N[C@@H](Cc2cn(CC(=O)O)c3ccccc23)C(=O)N1C` [Example 3045] ({CH2CO}-Y[NMeA]NP[Dap](X20)L[Hyp]W[Dab][Trp(1-CH2COOH)][NMeNle][NMeNle]LCG-NH2; thioether N-14): the IC50 is 1.3 nM.

Still in this assay, the particulars now being: PD-L1-His 10 nM pre-incubated with inhibitor, PD-1-Ig 20 nM; read-out: HTRF IC50.
Turning to `CCCC[C@H]1C(=O)N(C)[C@@H](CCCC)C(=O)N[C@@H](CC(C)C)C(=O)N[C@H](C(=O)NCC(N)=O)CSCC(=O)N[C@@H](Cc2ccc(O)cc2)C(=O)N(C)[C@@H](C)C(=O)N[C@@H](CC(N)=O)C(=O)N2CCC[C@H]2C(=O)N[C@@H](CNC(=O)Nc2c[nH]c3ccccc23)C(=O)N[C@@H](CC(C)C)C(=O)N2C[C@H](O)C[C@H]2C(=O)N[C@@H](Cc2c[nH]c3ccccc23)C(=O)N[C@@H](CCN)C(=O)N[C@@H](Cc2cn(CC(=O)O)c3ccccc23)C(=O)N1C` [Example 3041] ({CH2CO}-Y[NMeA]NP[Dap]([CO-X52])L[Hyp]W[Dab][Trp(1-CH2COOH)][NMeNle][NMeNle]LCG-NH2; thioether N-14), the IC50 was 0.3 nM.

As for `CCCC[C@H]1C(=O)N(C)[C@@H](CCCC)C(=O)N[C@@H](CC(C)C)C(=O)N[C@H](C(=O)NCC(N)=O)CSCC(=O)N[C@@H](Cc2ccc(O)cc2)C(=O)N(C)[C@@H](C)C(=O)N[C@@H](CC(N)=O)C(=O)N2CCC[C@H]2C(=O)N[C@@H](CNC(=O)Nc2ccc3c(c2)OCCO3)C(=O)N[C@@H](CC(C)C)C(=O)N2C[C@H](O)C[C@H]2C(=O)N[C@@H](Cc2c[nH]c3ccccc23)C(=O)N[C@@H](CCN)C(=O)N[C@@H](Cc2cn(CC(=O)O)c3ccccc23)C(=O)N1C` [Example 3042] ({CH2CO}-Y[NMeA]NP[Dap]([CO-X71])L[Hyp]W[Dab][Trp(1-CH2COOH)][NMeNle][NMeNle]LCG-NH2; thioether N-14), the half-inhibitory concentration (IC50) amounted to 2.5 nM.

`CCCC[C@H]1C(=O)N(C)[C@@H](CCCC)C(=O)N[C@@H](CC(C)C)C(=O)N[C@H](C(=O)NCC(N)=O)CSCC(=O)N[C@@H](Cc2ccc(O)cc2)C(=O)N(C)[C@@H](C)C(=O)N[C@@H](CC(N)=O)C(=O)N2CCC[C@H]2C(=O)N[C@@H](CNC(=S)Nc2ccc(C3CC3)c3ccccc23)C(=O)N[C@@H](CC(C)C)C(=O)N2C[C@H](O)C[C@H]2C(=O)N[C@@H](Cc2c[nH]c3ccccc23)C(=O)N[C@@H](CCN)C(=O)N[C@@H](Cc2cn(CC(=O)O)c3ccccc23)C(=O)N1C` [Example 3044] ({CH2CO}-Y[NMeA]NP[Dap](X75)L[Hyp]W[Dab][Trp(1-CH2COOH)][NMeNle][NMeNle]LCG-NH2; thioether N-14): the IC50 came out at 3 nM.

Consider `CCCC[C@H]1C(=O)N(C)[C@@H](CCCC)C(=O)N[C@@H](CC(C)C)C(=O)N[C@H](C(=O)NCC(N)=O)CSCC(=O)N[C@@H](Cc2ccc(O)cc2)C(=O)N(C)[C@@H](C)C(=O)N[C@@H](CC(N)=O)C(=O)N2CCC[C@H]2C(=O)N[C@@H](CNC(=O)Nc2ccc3c(c2)C(C)(C)CCC3(C)C)C(=O)N[C@@H](CC(C)C)C(=O)N2C[C@H](O)C[C@H]2C(=O)N[C@@H](Cc2c[nH]c3ccccc23)C(=O)N[C@@H](CCN)C(=O)N[C@@H](Cc2cn(CC(=O)O)c3ccccc23)C(=O)N1C` [Example 3046] ({CH2CO}-Y[NMeA]NP[Dap]([CO-X68])L[Hyp]W[Dab][Trp(1-CH2COOH)][NMeNle][NMeNle]LCG-NH2; thioether N-14), for which the IC50 was 3.3 nM.

`CCCC[C@H]1C(=O)N(C)[C@@H](CCCC)C(=O)N[C@@H](CC(C)C)C(=O)N[C@H](C(=O)NCC(N)=O)CSCC(=O)N[C@@H](Cc2ccc(O)cc2)C(=O)N(C)[C@@H](C)C(=O)N[C@@H](CC(N)=O)C(=O)N2CCC[C@H]2C(=O)N[C@@H](CNC(=S)Nc2ccc3nccnc3c2Br)C(=O)N[C@@H](CC(C)C)C(=O)N2C[C@H](O)C[C@H]2C(=O)N[C@@H](Cc2c[nH]c3ccccc23)C(=O)N[C@@H](CCN)C(=O)N[C@@H](Cc2cn(CC(=O)O)c3ccccc23)C(=O)N1C` [Example 3047] ({CH2CO}-Y[NMeA]NP[Dap](X42)L[Hyp]W[Dab][Trp(1-CH2COOH)][NMeNle][NMeNle]LCG-NH2; thioether N-14): the IC50 turned out to be 5.8 nM.

In the case of `CCCC[C@H]1C(=O)N(C)[C@@H](CCCC)C(=O)N[C@@H](CC(C)C)C(=O)N[C@H](C(=O)NCC(N)=O)CSCC(=O)N[C@@H](Cc2ccc(O)cc2)C(=O)N(C)[C@@H](C)C(=O)N[C@@H](CC(N)=O)C(=O)N2CCC[C@H]2C(=O)N[C@@H](CNC(=S)Nc2ccc3cc(C)[nH]c3c2)C(=O)N[C@@H](CC(C)C)C(=O)N2C[C@H](O)C[C@H]2C(=O)N[C@@H](Cc2c[nH]c3ccccc23)C(=O)N[C@@H](CCN)C(=O)N[C@@H](Cc2cn(CC(=O)O)c3ccccc23)C(=O)N1C` [Example 3048] ({CH2CO}-Y[NMeA]NP[Dap](X33)L[Hyp]W[Dab][Trp(1-CH2COOH)][NMeNle][NMeNle]LCG-NH2; thioether N-14), the IC50 worked out at 3 nM.

Turning to `CCCC[C@H]1C(=O)N(C)[C@@H](CCCC)C(=O)N[C@@H](CC(C)C)C(=O)N[C@H](C(=O)NCC(N)=O)CSCC(=O)N[C@@H](Cc2ccc(O)cc2)C(=O)N(C)[C@@H](C)C(=O)N[C@@H](CC(N)=O)C(=O)N2CCC[C@H]2C(=O)N[C@@H](CNC(=S)Nc2ccc3cc[nH]c3c2)C(=O)N[C@@H](CC(C)C)C(=O)N2C[C@H](O)C[C@H]2C(=O)N[C@@H](Cc2c[nH]c3ccccc23)C(=O)N[C@@H](CCN)C(=O)N[C@@H](Cc2cn(CC(=O)O)c3ccccc23)C(=O)N1C` [Example 3049] ({CH2CO}-Y[NMeA]NP[Dap](X7)L[Hyp]W[Dab][Trp(1-CH2COOH)][NMeNle][NMeNle]LCG-NH2; thioether N-14), the IC50 was determined as 4.1 nM.

With `CCCC[C@H]1C(=O)N(C)[C@@H](CCCC)C(=O)N[C@@H](CC(C)C)C(=O)N[C@H](C(=O)NCC(N)=O)CSCC(=O)N[C@@H](Cc2ccc(O)cc2)C(=O)N(C)[C@@H](C)C(=O)N[C@@H](CC(N)=O)C(=O)N2CCC[C@H]2C(=O)N[C@@H](CNC(=S)Nc2ccc3c(c2)OCO3)C(=O)N[C@@H](CC(C)C)C(=O)N2C[C@H](O)C[C@H]2C(=O)N[C@@H](Cc2c[nH]c3ccccc23)C(=O)N[C@@H](CCNC(=S)Nc2ccc3c(c2)OCO3)C(=O)N[C@@H](Cc2cn(CC(=O)O)c3ccccc23)C(=O)N1C` [Example 3050] ({CH2CO}-Y[NMeA]NP[Dap](X16)L[Hyp]W[Dab](X16)[Trp(1-CH2COOH)][NMeNle][NMeNle]LCG-NH2; thioether N-14), the IC50 worked out at 2.7 nM.

In the case of `CCCC[C@H]1C(=O)N(C)[C@@H](CCCC)C(=O)N[C@@H](CC(C)C)C(=O)N[C@H](C(=O)NCC(N)=O)CSCC(=O)N[C@@H](Cc2ccc(O)cc2)C(=O)N(C)[C@@H](C)C(=O)N[C@@H](CC(N)=O)C(=O)N2CCC[C@H]2C(=O)N[C@@H](CNC(=S)Nc2cccc3c(C#N)c[nH]c23)C(=O)N[C@@H](CC(C)C)C(=O)N2C[C@H](O)C[C@H]2C(=O)N[C@@H](Cc2c[nH]c3ccccc23)C(=O)N[C@@H](CCNC(=S)Nc2cccc3c(C#N)c[nH]c23)C(=O)N[C@@H](Cc2cn(CC(=O)O)c3ccccc23)C(=O)N1C` [Example 3051] ({CH2CO}-Y[NMeA]NP[Dap](X38)L[Hyp]W[Dab](X38)[Trp(1-CH2COOH)][NMeNle][NMeNle]LCG-NH2; thioether N-14), the IC50 was 4.5 nM.

With `CCCC[C@H]1C(=O)N(C)[C@@H](CCCC)C(=O)N[C@@H](CC(C)C)C(=O)N[C@H](C(=O)NCC(N)=O)CSCC(=O)N[C@@H](Cc2ccc(O)cc2)C(=O)N(C)[C@@H](C)C(=O)N[C@@H](CC(N)=O)C(=O)N2CCC[C@H]2C(=O)N[C@@H](CNC(=S)Nc2cccc3c(C)n[nH]c23)C(=O)N[C@@H](CC(C)C)C(=O)N2C[C@H](O)C[C@H]2C(=O)N[C@@H](Cc2c[nH]c3ccccc23)C(=O)N[C@@H](CCNC(=S)Nc2cccc3c(C)n[nH]c23)C(=O)N[C@@H](Cc2cn(CC(=O)O)c3ccccc23)C(=O)N1C` [Example 3052] ({CH2CO}-Y[NMeA]NP[Dap](X35)L[Hyp]W[Dab](X35)[Trp(1-CH2COOH)][NMeNle][NMeNle]LCG-NH2; thioether N-14), the IC50 came to 3.9 nM.

As for `CCCC[C@H]1C(=O)N(C)[C@@H](CCCC)C(=O)N[C@@H](CC(C)C)C(=O)N[C@H](C(=O)NCC(N)=O)CSCC(=O)N[C@@H](Cc2ccc(O)cc2)C(=O)N(C)[C@@H](C)C(=O)N[C@@H](CC(N)=O)C(=O)N2CCC[C@H]2C(=O)N[C@@H](CNC(=S)Nc2cc(C)nc3ccccc23)C(=O)N[C@@H](CC(C)C)C(=O)N2C[C@H](O)C[C@H]2C(=O)N[C@@H](Cc2c[nH]c3ccccc23)C(=O)N[C@@H](CCN)C(=O)N[C@@H](Cc2cn(CC(=O)O)c3ccccc23)C(=O)N1C` [Example 3053] ({CH2CO}-Y[NMeA]NP[Dap](X91)L[Hyp]W[Dab][Trp(1-CH2COOH)][NMeNle][NMeNle]LCG-NH2; thioether N-14), the half-maximal inhibitory concentration (IC50) came out at 3.4 nM.
